Experimental data reported in patent US11504368B2, “2,6-diamino-3,4-dihydropyrimidin-4-one derivatives and use thereof in therapy” (THOMAS HELLEDAYS STIFTELSE FÖR MEDICINSK FORSKNING, priority 2018, dated 2022).

Legend:
HL-60 cells = assay: Cancer cell viability assay (HL-60, resazurin); assay type: cell-based; settings: Homo sapiens, 96 h, mean of at least 3 independent measurements, read-out: HL60 cell proliferation inhibition EC50
Description: HL-60 cells (human promyelocytic leukemia cells) were seeded in a 384-well plate at a density of 2,000 cells per well in 50 μL induction medium and treated with vehicle (DMSO) or an 11-point concentration range with 3-fold dilution in concentration of compound. Each assay point was run in duplicate. Wells without cells but with DMSO were used as negative controls. The cells were left to proliferate over a period of 96 h, in an incubator at 37° C. and 5% CO2, followed by an addition of 10 μL […] resazurin sodium salt (199303, Sigma-Aldrich) dissolved in DPBS (14190, Gibco). After 4 h of incubation at 37° C. and 5% CO2, the fluorescent signal was measured using an excitation wavelength of 544 nm and an emission wavelength of 595 nm in a Hidex Sense plate reader. Cell plates were incubated in boxes with damp paper tissues to avoid evaporation. All additions, except compound and DMSO, were done using the Multidrop Combi (Thermo Fisher Scientific). DMSO and compounds were pre-dispensed with an Echo 550 Liquid handler (Labcyte) in black, clear bottom, TC-treated and sterile 384-well plates (3764, Corning). Growth medium consisted of RPMI 1640 GlutaMAX (61870, Gibco), 10% (v/v) FBS (10500, Gibco), and 1% (v/v) P/S (15070, Gibco). Induction medium consisted of RPMI 1640 GlutaMAX (61870, Gibco), 5% (v/v) FBS (10500, Gibco), and 1% (v/v) P/S (15070, Gibco). EC50 values were determined by fitting a four parameter sigmoidal curve model using XLfit (IDBS). Reported EC50 values are the mean of at least 3 independent measurements.

MTHFD2 = MTHFD2 (Homo sapiens (Human), UniProt P13995); assay: Inhibition of MTHFD2 (NAD(P)H-Glo luminescence); assay type: biochemical; settings: 3.4 nmol/L MTHFD2, 5 μmol/L folitixorin, 250 μmol/L NAD+; mean of at least 3 independent measurements
Chain of MTHFD2 (P13995 36-350): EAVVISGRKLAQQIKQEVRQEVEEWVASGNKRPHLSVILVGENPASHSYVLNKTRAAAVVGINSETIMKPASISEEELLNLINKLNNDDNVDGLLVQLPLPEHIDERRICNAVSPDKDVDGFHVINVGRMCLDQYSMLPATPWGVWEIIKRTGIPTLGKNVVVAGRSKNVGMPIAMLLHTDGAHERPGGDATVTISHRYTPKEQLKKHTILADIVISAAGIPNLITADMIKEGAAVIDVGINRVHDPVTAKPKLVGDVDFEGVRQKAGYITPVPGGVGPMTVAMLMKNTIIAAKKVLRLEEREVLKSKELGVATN
Description: DMSO was used as negative control. The serial dilution in DMSO, from compound DMSO stock solution, was created by dispensing from a 384-well low dead volume microplate (LP-0200, Labcyte) and a 384-well polypropylene microplate 2.0 (PP-0200, Labcyte). A total of 2.5 μL MTHFD2 was preincubated with compound or DMSO for 10 min. The enzymatic reaction was initiated by adding 2.5 μL folitixorin (F680350, Toronto Research Chemicals). For background control, 5 μL buffer was added to the well. […] The final concentrations of all reagents in a total assay volume of 5 μL per well were 50 mmol/L Tris-HCl at pH 8.0, 100 mmol/L NaCl, 5 mmol/L MgCl2, 25 mmol/L Na3PO4 at pH 8.0, 0.005% (v/v) Tween-20, and 2 mmol/L 2-mercaptoethanol. After 15 min reaction time, 5 μL NAD(P)H-Glo detection reagent (G9061 or G9062, Promega) was dispensed in all wells and the plate was incubated for 60 min. Luminescence was measured on a plate reader (Envision, PerkinElmer or Sense, Hidex). The light signal produced is proportional to the amount of NAD(P)H in the sample. IC50 values were determined by fitting a four parameter sigmoidal curve model using XLfit (IDBS). Reported IC50 values are the mean of at least 3 independent measurements.

| EC50 (HL-60 cells) [nM] | IC50 (MTHFD2) [nM] | Structure (SMILES) |
| --- | --- | --- |
| 6190 | 14 | Nc1nc(N)c(CC(=O)Nc2ccc(C(=O)N[C@@H](CCC(=O)O)C(=O)O)nc2Oc2ccccc2)c(=O)[nH]1 [Example 26, (2S)-2-((5-[2-(2,4-diamino-6-oxo-1,6-dihydropyrimidin-5-yl)acetamido]-6-phenoxypyridin-2-yl)formamido)pentanedioic acid] |
| 1940 | 30 | Nc1nc(N)c(NC(=O)Nc2ccc(C(=O)N[C@@H](CCC(=O)N[C@H](CCC(=O)O)C(=O)O)C(=O)O)nc2)c(=O)[nH]1 [Example 25, (2R)-2-[(4S)-4-carboxy-4-[(5-{[(2,4-diamino-6-oxo-1,6-dihydropyrimidin-5-yl)carbamoyl]amino}pyridin-2-yl)formamido]butanamido]pentanedioic acid] |
| 2770 | 65 | Nc1nc(N)c(CC(=O)Nc2ccc(C(=O)N[C@@H](CCC(=O)O)C(=O)O)nc2-c2ccccc2)c(=O)[nH]1 [Example 27, (2S)-2-((5-[2-(2,4-diamino-6-oxo-1,6-dihydropyrimidin-5-yl)acetamido]-6-phenylpyridin-2-yl)formamido)pentanedioic acid] |
| 10 | 13 | Nc1nc(N)c(CC(=O)Nc2cnc(C(=O)N[C@@H](CCc3nnn[nH]3)C(=O)O)c(F)c2)c(=O)[nH]1 [Example 32, (2S)-2-((5-[2-(2,4-diamino-6-oxo-1,6-dihydropyrimidin-5-yl)acetamido]-3-fluoropyridin-2-yl)formamido)-4-(1H-1,2,3,4-tetrazol-5-yl)butanoic acid] |
| 12800 | 195 | Nc1nc(N)c(NC(=O)Nc2ccc(C(=O)N[C@@H](CC(=O)O)C(=O)O)nc2)c(=O)[nH]1 [Example 22, (2S)-2-[(5-{[(2,4-diamino-6-oxo-1,6-dihydropyrimidin-5-yl)carbamoyl]amino}pyridin-2-yl)formamido]butanedioic acid] |
| 31 | 19 | CC(C)[C@H](NC(=O)c1ccc(NC(=O)Nc2c(N)nc(N)[nH]c2=O)cn1)C(=O)O [Example 3, (2S)-2-[(5-{[(2,4-diamino-6-oxo-1,6-dihydropyrimidin-5-yl)carbamoyl]amino}pyridin-2-yl)formamido]-3-methylbutanoic acid; trifluoroacetic acid] |
| 10 | 68 | Nc1nc(N)c(NC(=O)Nc2ccc(C(=O)N[C@@H](Cc3ccccc3)C(=O)O)nc2)c(=O)[nH]1 [Example 2, (2S)-2-[(5-{[(2,4-diamino-6-oxo-1,6-dihydropyrimidin-5-yl)carbamoyl]amino}pyridin-2-yl)formamido]-3-phenylpropanoic acid; trifluoroacetic acid] |
| 835 | 43 | Nc1nc(N)c(NC(=O)Nc2ccc(C(=O)N[C@@H](CCC(=O)N[C@@H](CCC(=O)O)C(=O)O)C(=O)O)nc2)c(=O)[nH]1 [Example 23, (2S)-2-[(4S)-4-carboxy-4-[(5-{[(2,4-diamino-6-oxo-1,6-dihydropyrimidin-5-yl)carbamoyl]amino}pyridin-2-yl)formamido]butanamido]pentanedioic acid] |
| 75 | 24 | Nc1nc(N)c(NC(=O)Nc2ccc(C(=O)N[C@@H](CCC(=O)O)C(=O)O)nc2)c(=O)[nH]1 [Example 1, (2S)-2-[(5-{[(2,4-diamino-6-oxo-1,6-dihydropyrimidin-5-yl)carbamoyl]amino}pyridin-2-yl)formamido]pentanedioic acid; trifluoroacetic acid] |
| 20 | 8 | CC(C)[C@H](NC(=O)c1ncc(NC(=O)Nc2c(N)nc(N)[nH]c2=O)cc1F)C(=O)O [Example 31, (2S)-2-[(5-{[(2,4-diamino-6-oxo-1,6-dihydropyrimidin-5-yl)carbamoyl]amino}-3-fluoropyridin-2-yl)formamido]-3-methylbutanoic acid] |
| 93 | 15 | Nc1nc(N)c(NC(=O)Nc2cnc(C(=O)N[C@@H](CCC(=O)O)C(=O)O)c(Cl)c2)c(=O)[nH]1 [Example 5, (2S)-2-[(3-chloro-5-{[(2,4-diamino-6-oxo-1,6-dihydropyrimidin-5 yl)carbamoyl]amino}pyridin-2-yl)formamido]pentanedioic acid] |
| 2 | 3 | Nc1nc(N)c(NC(=O)Nc2cnc(C(=O)N[C@@H](CCc3nnn[nH]3)C(=O)O)c(F)c2)c(=O)[nH]1 [Example 24, (2S)-2-[(5-{[(2,4-diamino-6-oxo-1,6-dihydropyrimidin-5-yl)carbamoyl]amino}-3-fluoropyridin-2-yl)formamido]-4-(1H-1,2,3,4-tetrazol-5-yl)butanoic acid] |
| 34 | 913 | Cc1cc(NC(=O)Cc2c(N)nc(N)[nH]c2=O)cnc1C(=O)N[C@@H](CCC(=O)O)C(=O)O [Example 20, (2S)-2-({5-[2-(2,4-diamino-6-oxo-1,6-dihydropyrimidin-5-yl)acetamido]-3-methylpyridin-2-yl}formamido)pentanedioic acid] |
| 37 | 46 | Nc1nc(N)c(NC(=O)Nc2ccc(C(=O)N[C@@H](CC3CCCC3)C(=O)O)nc2)c(=O)[nH]1 [Example 11, (2S)-3-cyclopentyl-2-[(5-{[(2,4-diamino-6-oxo-1,6-dihydropyrimidin-5-yl)carbamoyl]amino}pyridin-2-yl)formamido]propanoic acid] |
| 62 | 312 | Nc1nc(N)c(CC(=O)Nc2ccc(C(=O)N[C@@H](Cc3ccccc3)C(=O)O)nc2)c(=O)[nH]1 [Example 8, (2S)-2-({5-[2-(2,4-diamino-6-oxo-1,6-dihydropyrimidin-5-yl)acetamido]pyridin-2-yl}formamido)-3-phenylpropanoic acid] |
| 197 | 11 | Nc1nc(N)c(NC(=O)Nc2ccc(C(=O)N[C@@H](CCC(=O)NS(=O)(=O)c3ccccc3)C(=O)O)nc2)c(=O)[nH]1 [Example 16, (2S)-4-[(benzenesulfonyl)carbamoyl]-2-[(5-{[(2,4-diamino-6-oxo-1,6-dihydropyrimidin-5-yl)carbamoyl]amino}pyridin-2-yl)formamido]butanoic acid] |
| 8 | 72 | Nc1nc(N)c(CC(=O)Nc2cnc(C(=O)N[C@@H](CCC(=O)O)C(=O)O)c(Cl)c2)c(=O)[nH]1 [Example 19, (2S)-2-((3-chloro-5-[2-(2,4-diamino-6-oxo-1,6-dihydropyrimidin-5-yl)acetamido]pyridin-2-yl)formamido)pentanedioic acid] |
| 8620 | 298 | C=Cc1nc(C(=O)N[C@@H](CCC(=O)O)C(=O)O)ccc1NC(=O)Cc1c(N)nc(N)[nH]c1=O [Example 21, (2S)-2-((5-[2-(2,4-diamino-6-oxo-1,6-dihydropyrimidin-5-yl)acetamido]-6-ethenylpyridin-2-yl)formamido)pentanedioic acid] |
| 187 | – | Nc1nc(N)c(NC(=O)Nc2ccc(C(=O)N[C@@H](CCc3ccccc3)C(=O)O)nc2)c(=O)[nH]1 [Example 14, (2S)-2-[(5-{[(2,4-diamino-6-oxo-1,6-dihydropyrimidin-5-yl)carbamoyl]amino}pyridin-2-yl)formamido]-4-phenylbutanoic acid] |

| Structure (SMILES) | EC50 (HL-60 cells) [nM] | IC50 (MTHFD2) [nM] |
| --- | --- | --- |
| Nc1nc(N)c(CC(=O)Nc2cnc(C(=O)N[C@@H](CCC(=O)O)C(=O)O)c(F)c2)c(=O)[nH]1 [Example 10, (2S)-2-((5-[2-(2,4-diamino-6-oxo-1,6-dihydropyrimidin-5-yl)acetamido]-3-fluoropyridin-2-yl)formamido)pentanedioic acid] | 14 | – |
